Source: PMC7898822, “RNA‐PROTACs: Degraders of RNA‐Binding Proteins” (Angewandte Chemie (International Ed. in English), 2020)
Like-named read-outs stand apart in the source and are kept apart here.

Legend:
Lin28_ZKD [1] = target: T1, Lin28_ZKD (Homo sapiens, UniProt Q9H9Z2); assay: Fluorescence polarization competition assay (displacement of let7FAM from Lin28_ZKD); type: binding
T1 construct: construct encoding amino acids 124–186 of human Lin28; His6; made in house; host or cells: Escherichia coli BL21 (DE3) Codon+ (RIL)
T1 sequence (Q9H9Z2 124-186): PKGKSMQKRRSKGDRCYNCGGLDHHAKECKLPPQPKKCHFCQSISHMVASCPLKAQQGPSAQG
Method: Fluorescence Polarization Assay. Fluorescence polarization titration assay was carried out by titrating Lin28_ZKD protein into FAM-labeled PreE-let-7 at a 10 nM final concentration and buffer (10 mM HEPES, 150 mM NaCl, 10 µM ZiCl2, pH 7,4). The assay plate was briefly vortexed, and air bubbles were removed by spinning at 1000 rpm. The fluorescence anisotropy was measured on a Spectra Max Paradigm multimode plate reader (Molecular Devices). The fluorescence polarization competition […]
preE-let-7. The concentration of Lin28_ ZKD is kept at 40 nM, a value in the range of the dissociation constant of Lin28_ZKD and preE-let-7 determined through fluorescence polarization titration assay, whereas preE-let-7 concentration is kept constant at 10 nM. FP competitive binding assays were performed on 384-well plates (#3575, Corning) with a total well volume of 10 µL.
Fluorescence polarization readings were transferred into Prism 7.0 (GraphPad). All fluorescence polarization assays were repeated at least three times and the anisotropy values fitted using GraphPad Prism software using 1:1 binding/inhibition model. […]

Lin28A = assay: Western blot of Lin28A in K562 cells; type: cell-based, human; settings: K562 cells, 48 h, western blot; three independent experiments
Description: Finally, we tested RNA‐PROTACs for their ability to degrade their target in two cell lines: the embryonic NT2/D1 cell line, which expresses high levels of Lin28A, ^[13a] and K562 cells which express Lin28A and Lin28B. […] Finally, we co‐treated K562 cells with ORN3P1 and MG132, a reversible inhibitor of the 26S proteasome. […] In order to explore the versatility of RNA‐PROTACs with non peptide‐based VHL ligands, we conjugated small‐molecule VH032 ^[38] to ORN3 via an amino linker to yield ORN3VH032 (Figure S1). […]

Lin28_ZKD [2] = target: T1, Lin28_ZKD; assay: NMR 1H-15N HSQC titration of Lin28_ZKD; type: binding; settings: 10 mM HEPES pH 7.0, 303K
Description: The oligonucleotide element of an RNA‐PROTAC binds its target RBP via interactions at the riboses and the backbone, as well as the nucleobases. […] Thus, we used the same method to examine how various ribose modifications of L28RBE (Table 1, Figure S1) might affect binding of an RNA‐PROTAC to Lin28_ZKD.

K562 cells = assay: Intracellular uptake of FAM-labelled oligonucleotides, fluorescence microscopy; type: cell-based, human; settings: FAM-conjugated, 1 µM, 24 h

CC[C@H](C)[C@H](NC(=O)[C@H](Cc1ccc(O)cc1)NC(=O)[C@@H]1C[C@@H](O)CN1C(=O)[C@H](C)NC(=O)[C@H](CC(C)C)NC(=O)CCCCCNC(=O)[C@@H](N)CSC1CC(=O)N(CCOP(=O)(S)OC[C@H]2O[C@@H](n3cnc4c(N)ncnc43)[C@H](OC)[C@@H]2OP(=O)(S)OC[C@H]2O[C@@H](n3cnc4c(=O)[nH]c(N)nc43)[C@H](OC)[C@@H]2OP(=O)(S)OC[C@H]2O[C@@H](n3cnc4c(=O)[nH]c(N)nc43)[C@H](OC)[C@@H]2OP(=O)(S)OC[C@H]2O[C@@H](n3cnc4c(N)ncnc43)[C@H](OC)[C@@H]2OP(=O)(S)OC[C@H]2O[C@@H](n3cnc4c(=O)[nH]c(N)nc43)[C@H](OC)[C@@H]2OP(=O)(S)OC[C@H]2O[C@@H](n3cnc4c(N)ncnc43)[C@H](OC)[C@@H]2OP(=O)(S)OC[C@H]2O[C@@H](n3ccc(=O)[nH]c3=O)[C@H](OC)[C@@H]2O)C1=O)C(=O)O (stereo partly drawn) [ORN4P1]
IC50 (Lin28_ZKD [1]): 208 ± 27.4 nM

CCCC[C@H](NC(=O)[C@H](C)NC(=O)[C@H](CC(C)C)NC(=O)CCCCCNC(=O)[C@@H](N)CSC1CC(=O)N(CCOP(=O)(S)OC[C@H]2O[C@@H](n3cnc4c(N)ncnc43)[C@H](OC)[C@@H]2OP(=O)(S)OC[C@H]2O[C@@H](n3cnc4c(=O)[nH]c(N)nc43)[C@H](OC)[C@@H]2OP(=O)(S)OC[C@H]2O[C@@H](n3cnc4c(=O)[nH]c(N)nc43)[C@H](OC)[C@@H]2OP(=O)(S)OC[C@H]2O[C@@H](n3cnc4c(N)ncnc43)[C@H](OC)[C@@H]2OP(=O)(S)OC[C@H]2O[C@@H](n3cnc4c(=O)[nH]c(N)nc43)[C@H](OC)[C@@H]2OP(=O)(S)OC[C@H]2O[C@@H](n3cnc4c(N)ncnc43)[C@H](OC)[C@@H]2OP(=O)(S)OC[C@H]2O[C@@H](n3ccc(=O)[nH]c3=O)[C@H](OC)[C@@H]2O)C1=O)C(=O)N[C@@H](Cc1ccc(O)cc1)C(=O)N[C@H](C(=O)O)[C@@H](C)CC (stereo partly drawn) [ORN4Pcon]
IC50 (Lin28_ZKD [1]): 206 ± 2.1 nM

CC[C@H](C)[C@H](NC(=O)[C@H](Cc1ccc(O)cc1)NC(=O)[C@@H]1C[C@@H](O)CN1C(=O)[C@H](C)NC(=O)[C@H](CC(C)C)NC(=O)CCCCCNC(=O)[C@@H](N)CSC1CC(=O)N(CCOP(=O)(S)OC[C@H]2O[C@@H](n3cc(C)c(=O)[nH]c3=O)[C@H](OCCOC)[C@@H]2OP(=O)(S)OC[C@H]2O[C@@H](n3cc(C)c(=O)[nH]c3=O)[C@H](OCCOC)[C@@H]2OP(=O)(S)OC[C@H]2O[C@@H](n3cc(C)c(=O)[nH]c3=O)[C@H](OCCOC)[C@@H]2OP(=O)(S)OC[C@H]2O[C@@H](n3cnc4c(N)ncnc43)[C@H](OCCOC)[C@@H]2OP(=O)(S)OC[C@H]2O[C@@H](n3cc(C)c(=O)[nH]c3=O)[C@H](OCCOC)[C@@H]2OP(=O)(S)OC[C@H]2O[C@@H](n3cc(C)c(=O)[nH]c3=O)[C@H](OCCOC)[C@@H]2OP(=O)(S)OC[C@H]2O[C@@H](n3cnc4c(=O)[nH]c(N)nc43)[C@H](OCCOC)[C@@H]2O)C1=O)C(=O)O (stereo partly drawn) [ORN5P1]
activity in FP competition assay (in words) (Lin28_ZKD [1]; displacement of let7FAM from Lin28_ZKD): weak effect on Lin28_ZKD | Lin28A suppression (in words) (Lin28A): inactive

ORN7: AGGAGAUAACU, PS-MOE (all 2'-MOE, all phosphorothioate, methylation of C and T or U not given here; further chemistry not fully specified)
IC50 (Lin28_ZKD [1]; Table 1, 40 nM Lin28_ZKD, 10 nM FAM-preE-let-7, 10 mM HEPES, 150 mM NaCl, pH 7.4, 30 min at 25 °C, 384-well, repeated at least three times, read-out: IC 50 determined by fluorescence polarization): 162 ± 38 nM | NMR chemical shift perturbation / signal change of Lin28_ZKD (Lin28_ZKD [2]; 1H-15N HSQC, 1:1 ratio): some of the NMR signals broadened or disappeared | precipitation with Lin28_ZKD in NMR titration (Lin28_ZKD [2]; at higher concentrations): precipitation at higher concentrations was also observed | intracellular localization (K562 cells): visible in the cytosol and the nuclei of cells | relative uptake (K562 cells; compared with ORN3): higher than that of ORN3
